Laboratory results reported in patent US5132432A, “Chemically reactive pyrenyloxy sulfonic acid dyes” (Molecular Probes, Inc., priority 1989, dated 1992).
Where a name gives a salt, the structure may show the parent alone. Values belong to the molecule of their own block, whether it stands above or below them.

Tests used:
[1] = cited from earlier work
[2] = background statement; cited from earlier work
[3] = Spectral properties (absorption/emission) of new pyrenyloxy sulfonic acid dyes, Table 4; assay type: physicochemical; settings: 50 mM aqueous potassium phosphate buffer at pH 8.0; for Em Max: uncorrected
Method: Stock solutions were prepared by accurately weighing and dissolving 5-10 mg samples of the compounds in 2.000 ml water. A 10 μl aliquot of the stock solution was diluted into 2.00 ml of 50 mM potassium phosphate buffer at pH 8.0. Absorbance solutions were prepared by further diluting 200 μl of the diluted stock solution to 2.000 ml with 50 mM potassium phosphate buffer at pH 8.0. Absorption data was collected on an IBM Model 9420 UV/Visible Spectrophotometer and extinction coefficients were determined by standard Beer's Law calculations.
Uncorrected fluorescence data was obtained on a Perkin-Elmer Model 650-40 Fluorescence Spectrophotometer equipped with a Perkin-Elmer/Hitachi 057 X-Y Recorder using a ten- to twentyfold dilution of the absorbance solutions. Fluorescence of the pyrenyloxy sulfonic acid dyes was determined for the reactive dyes and for their conjugates with model compounds by dissolving the dye at a concentration above 1×10^-8M in an appropriate solvent such as water, methanol, ethanol, or dimethylsulfoxide and measurement of the fluorescence in a suitable instrument, such as a fluorescence spectrometer or fluorescence microscope or flow cytometer. Fluorescence could also be observed for the dyes in solution by visual inspection with illumination by a suitable source that emits light at wavelengths of less than 420 nm.

[4] = Quantum yield relative to quinine sulfate; assay type: physicochemical; settings: in water
Text: An estimate of the quantum yield of the dyes relative to quinine sulfate (quantum yield=0.55 in 1N sulfuric acid) was obtained by integrating the emission spectrum of the dye excited at the same wavelength and optical density as the standard.

[5] = physiological range (pH 6 to 8); cited from earlier work
[6] = Solubility in water / aqueous solution; settings: solubility of the reactive form of the dye; grade in words
[7] = Comparison of spectral properties of reactive dyes, Table 1; assay type: physicochemical; settings: for ε: at first maximum; for Abs Max: first maximum; for Emission Bandwidth / Emission Bandwidth [cm^-1]: full bandwidth at half peak height; for Quantum Yield: in aqueous solution, grade in words; for % Emission at 514 nm: percent of maximum emission at 514 nm
Text: A number of dyes have been proposed in the literature that can be excited and detected at wavelengths less than 500 nm. Several chemically reactive fluorophores that can be excited in the near ultraviolet and short wavelength visible region of the spectrum have been described. […] These proposed tracers are derived from naphthalene derivatives such as 5-dimethylaminonaphthalene-1-sulfonic acid (Dansyl) [Weber, Biochem. J. 41:145 (1952); Rinderknecht, Experientin 16:430 (1960)], 3-(isothiocyanato)naphthalene-1,5-disulfonic acid [Braunitzer, et al., Hoppe-Seyler's Z. Physiol. […] Chem. 358:505 (1977)], pyrene derivatives such as pyrene-1-butyric acid (PBA) [Malencik & Anderson, Biochemistry 11:3022 (1972)], 8-isothiocyanatopyrene-1,3,6-trisulfonic acid (IPTS) [Braunitzer,et al., Hoppe-Seyler's Z. Physiol. Chem. 354:1536 (1973)] and 8-hydroxypyrene-1,3,6-trisulfonyl chloride [Wolfbeis, Fresenies Z. Anal. Chem. 320:271 (1985)], stilbene derivatives such as 4-acetamido-4'-isothiocyanatostilbene-2,2'-disulfonic acid (SITS) [Cornelisse & Ploem, J. Histochem. Cytochem. 24:72 (1976)], and coumarin dyes such as 3-carboxy-7-hydroxycoumarin [Baker & Collis, J. Chem. Soc. 1949, S 12 (1949)], 7-hydroxy-4-methylumbelliferone-3-acetic acid (4-MUA) [Khalfan, et al., Biochem. J. 209:265 (1983)], 7-amino-4-methylcoumarin-3-acetic acid (AMCA) [Khalfan, et al., Histochem. J. 18:497 (1986)] and 7-diethylaminocoumarin [Staines, et al. (1988)].

[8] = first (longer-wavelength) maximum
[9] = second (shorter-wavelength) maximum

SMILES: O=C1OC2(c3ccc(O)cc3Oc3cc(O)ccc32)c2ccccc21 [fluorescein]
extinction coefficient ([1]; at absorbance maximum): 75,000 cm^-1 M^-1
emission onset ([1]; beginning of visible emission): approximately 480 nm

SMILES: Cc1c(CC(=O)ON2C(=O)CCC2=O)c(=O)oc2cc(N)ccc12 [succinimidyl ester of AMCA]
aqueous solubility / lipophilicity [2]: quite lipophilic and insoluble in the aqueous solutions

SMILES: [N-]=[N+]=Nc1ccc(C(=O)NCCCCCNC(=O)COc2cc(S(=O)(=O)[O-])c3ccc4c(S(=O)(=O)[O-])cc(S(=O)(=O)[O-])c5ccc2c3c54)cc1.[Na+].[Na+].[Na+] [Compound 20, N-(1,3,6-Trisulfo-8-pyrenyloxyacetyl)-N'-(4-azidobenzoyl)-1,5-pentanediamine, trisodium salt]
Emission Band-width [3]: 50 nm
Emission at 514 nm [3]: 3.5 % of max
Em Max [3]: 424 nm
Abs Max [3, 8]: 400 nm

SMILES: CC(C)(C)OC(=O)N1CCC[C@H]1C(=O)NCCNC(=O)COc1cc(S(=O)(=O)[O-])c2ccc3c(S(=O)(=O)[O-])cc(S(=O)(=O)[O-])c4ccc1c2c43.[Na+].[Na+].[Na+] [Compound 14, N-(1,3,6-Trisulfo-8-pyrenyloxyacetyl)-N'-(N-t-butoxycarbonyl-L-prolyl)-1,2-ethanediamine, trisodium salt]
Quantum Yield [4]: greater than 0.90
Emission Band-width [3]: 49 nm
Emission at 514 nm [3]: 2.8 % of max
Em Max [3]: 422 nm
Abs Max [3, 8]: 399 nm

Water Solubility [6]: low
Em. Max. [7]: 454 nm
ε [7]: 19100 M⁻¹ cm⁻¹
Abs Max [7]: 360 nm
Emission Bandwidth [7]: 58 nm
Emission Bandwidth [cm^-1] [7]: 2668 cm⁻¹
Quantum Yield [7]: med.
% Emission at 514 nm [7]: 20 % of max
SMILES: Cc1c(CC(=O)O)c(=O)oc2cc(O)ccc12 [Compound 4-MUA, 7-hydroxy-4-methylumbelliferone-3-acetic acid]
sensitivity to solution pH [5]: high sensitivity to solution pH

SMILES: NCCCCCNC(=O)COc1cc(S(=O)(=O)O)c2ccc3c(S(=O)(=O)O)cc(S(=O)(=O)O)c4ccc1c2c43 [Compound 4, 1-(1,3,6-Trisulfo-8-pyrenloxyacetamido)-(5-aminopentane), trisodium salt]
Quantum Yield [4]: greater than 0.90
Emission Band-width [3]: 50 nm
Emission at 514 nm [3]: 3.9 % of max
Em Max [3]: 422 nm
ε ([3]; at first maximum): 27.6 10^3 M^-1 cm^-1
ε ([3]; at second maximum): 22.8 10^3 M^-1 cm^-1
Abs Max [3, 9]: 377 nm

SMILES: CC(C)(C)OC(=O)N1CCC[C@H]1C(=O)NCCCCCNC(=O)COc1cc(S(=O)(=O)O)c2ccc3c(S(=O)(=O)O)cc(S(=O)(=O)O)c4ccc1c2c43 [Compound 15]
Emission Band-width [3]: 50 nm
Emission at 514 nm [3]: 3.0 % of max
Abs Max [3, 8]: 399 nm
Abs Max [3, 9]: 377 nm

Water Solubility [6]: low
Em. Max. [7]: 442 nm
ε [7]: 15200 M⁻¹ cm⁻¹
Abs Max [7]: 354 nm
Emission Bandwidth [7]: 57 nm
Emission Bandwidth [cm^-1] [7]: 2858 cm⁻¹
Quantum Yield [7]: med.
% Emission at 514 nm [7]: 12 % of max
SMILES: Cc1c(CC(=O)O)c(=O)oc2cc(N)ccc12 [AMCA, 7-amino-4-methylcoumarin-3-acetic acid]

SMILES: COC(=O)COc1cc(OCC(=O)OC)c2ccc3c(S(=O)(=O)O)cc(S(=O)(=O)O)c4ccc1c2c43 [Compound 21, Dimethyl 1,3-disulfo-6-carboxymethoxy-8-pyrenyloxyacetic acid, disodium salt]
Emission Band-width [3]: 55 nm
Emission at 514 nm [3]: 13.0 % of max
Em Max [3]: 447 nm
ε ([3]; at first maximum): 24.5 10^3 M^-1 cm^-1
Abs Max [3, 8]: 396 nm

SMILES: O=C(O)CCCc1ccc2ccc3cccc4ccc1c2c34 [PBA, pyrene-1-butyric acid]
Water Solubility [6]: low
Em. Max. [7]: 377 nm
ε [7]: 45100 M⁻¹ cm⁻¹
Abs Max [7]: 341 nm
Quantum Yield [7]: low
% Emission at 514 nm [7]: 2 % of max

SMILES: N.N.N.NNC(=O)COc1cc(S(=O)(=O)O)c2ccc3c(S(=O)(=O)O)cc(S(=O)(=O)O)c4ccc1c2c43 [Compound 13, 1,3,6-Trisulfo-8-pyrenyloxyacethydrazide, triammonium salt]
Emission Band-width [3]: 50 nm
Emission at 514 nm [3]: 3.8 % of max
Abs Max [3, 8]: 399 nm
Abs Max [3, 9]: 376 nm

SMILES: NCCNC(=O)COc1cc(S(=O)(=O)O)c2ccc3c(S(=O)(=O)O)cc(S(=O)(=O)O)c4ccc1c2c43 [Compound 3, 1,3,6-Trisulfo-8-pyrenyloxyacetamido-1-(2-aminoethane), trisodium salt]
Emission Band-width [3]: 50 nm
Emission at 514 nm [3]: 4.9 % of max
Abs Max [3, 8]: 399 nm

SMILES: O=C(COc1cc(S(=O)(=O)O)c2ccc3c(S(=O)(=O)O)cc(S(=O)(=O)O)c4ccc1c2c43)NCCO [Compound 10]
Emission Band-width [3]: 50 nm
Emission at 514 nm [3]: 3.3 % of max
Abs Max [3, 8]: 399 nm
Abs Max [3, 9]: 377 nm

SMILES: O=S(=O)(O)c1cc(N=C=S)c2ccc3c(S(=O)(=O)O)cc(S(=O)(=O)O)c4ccc1c2c34 [IPTS, 8-isothiocyanatopyrene-1,3,6-trisulfonic acid]
Water Solubility [6]: high
Em. Max. [7]: 458 nm
ε [7]: 25600 M⁻¹ cm⁻¹
Abs Max [7]: 373 nm
Emission Bandwidth [7]: 78 nm
Emission Bandwidth [cm^-1] [7]: 3634 cm⁻¹
Quantum Yield [7]: low
% Emission at 514 nm [7]: 38 % of max

SMILES: O=S(=O)(Cl)c1cc(O)c2ccc3c(S(=O)(=O)Cl)cc(S(=O)(=O)Cl)c4ccc1c2c34 [hydroxypyrenetrisulfonyl chloride, 8-hydroxypyrene-1,3,6-trisulfonyl chloride]
sensitivity to solution pH [5]: high sensitivity to solution pH

SMILES: O=C(O)COc1cc(S(=O)(=O)[O-])c2ccc3c(S(=O)(=O)[O-])cc(S(=O)(=O)[O-])c4ccc1c2c43.[Na+].[Na+].[Na+] [Compound 2, 1,3,6-Trisulfo-8-pyrenyloxyacetic acid, trisodium salt]
Quantum Yield [4]: greater than 0.90
Emission Band-width [3]: 52 nm
Emission at 514 nm [3]: 5.8 % of max
Em Max [3]: 430 nm
ε ([3]; at first maximum): 27.0 10^3 M^-1 cm^-1
ε ([3]; at second maximum): 19.8 10^3 M^-1 cm^-1
Abs Max [3, 9]: 374 nm

SMILES: NNC(=O)COc1cc(S(=O)(=O)O)c2ccc3c(S(=O)(=O)O)cc(S(=O)(=O)O)c4ccc1c2c43 [Compound 11, 1,3,6-Trisulfo-8-pyrenyloxyacethydrazide, free sulfonic acid]
Emission Band-width [3]: 51 nm
Abs Max [3, 8]: 399 nm
Abs Max [3, 9]: 377 nm

Water Solubility [6]: low
Em. Max. [7]: 578 nm
ε [7]: 4500 M⁻¹ cm⁻¹
Abs Max [7]: 340 nm
Quantum Yield [7]: low
SMILES: CN(C)c1cccc2c(S(=O)(=O)O)cccc12 [Dansyl, 5-dimethylaminonaphthalene-1-sulfonic acid]

SMILES: C=CC(=O)NCCCCCNC(=O)COc1cc(S(=O)(=O)O)c2ccc3c(S(=O)(=O)O)cc(S(=O)(=O)O)c4ccc1c2c43 [Compound 19]
Emission Band-width [3]: 49 nm
Emission at 514 nm [3]: 2.9 % of max
Abs Max [3, 8]: 399 nm

SMILES: N#CCCCCCNC(=O)COc1cc(S(=O)(=O)O)c2ccc3c(S(=O)(=O)O)cc(S(=O)(=O)O)c4ccc1c2c43 [Compound 16]
Emission Band-width [3]: 49 nm
Emission at 514 nm [3]: 3.0 % of max
Abs Max [3, 8]: 399 nm
Abs Max [3, 9]: 377 nm

SMILES: O=C(CCCc1ccc2ccc3cccc4ccc1c2c34)ON1C(=O)CCC1=O [succinimidyl pyrene-1-butyrate]
aqueous solubility / lipophilicity [2]: quite lipophilic and insoluble in the aqueous solutions
